Drawing on patent US8703805B2 (Exelixis Patent Company LLC, priority 2005, dated 2014), this text covers EC50 for 31 compounds.

The assay relates to LXRα and/or LXRβ. The assay is described as follows: LXR/LXRE co-transfection assay (luciferase reporter, CV-1 cells). It counts as cell-based, human. The following applies: IC50 or EC50 for LXR (LXRα and/or LXRβ, not distinguished), tested as described in Example 109, CV-1 cells. An outline of the steps:
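Transient co-transfection of CV-1 cells with full-length human LXRα or LXRβ plus RXRα expression plasmids and an LXREx1-Tk-luciferase reporter; compounds (10 μM screen, ≤1% DMSO) incubated 20 h at 37 °C. Luminescence read after lysis; EC50/IC50 from 8-point half-log curves, efficacy relative to a high control or DMSO.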

Some results are limits rather than exact numbers.

By EC50 is commonly meant the concentration that produces a half-maximal response. Read a low EC50 as an effect from little substance. Take `COC(C)(C)c1cc(-c2ccc(-c3cccc(S(C)(=O)=O)c3)s2)n(-c2ccccc2C(F)(F)F)n1` [Example 1189, 3-[1-methyl-1-(methyloxy)ethyl]-5-{5-[3-(methylsulfonyl)phenyl]-2-thienyl}-1-[2-(trifluoromethyl)phenyl]-1H-pyrazole]: the EC50 was under 1000 nM.
As for `CS(=O)(=O)c1cccc(-c2ccc(-c3cc(C4(C#N)CCCC4)nn3-c3ccccc3Cl)s2)c1` [Example 1191, 1-[1-(2-chlorophenyl)-5-{5-[3-(methylsulfonyl)phenyl]-2-thienyl}-1H-pyrazol-3-yl]cyclopentanecarbonitrile], the EC50 is under 1000 nM.
Under `CC(C)(CN)c1cc(-c2ccc(-c3cccc(S(C)(=O)=O)c3)s2)n(-c2ccccc2Cl)n1` [Example 1192, 2-[1-(2-chlorophenyl)-5-{5-[3-(methylsulfonyl)phenyl]-2-thienyl}-1H-pyrazol-3-yl]-2-methylpropan-1-amine] stands under 1000 nM.
With `CS(=O)(=O)c1cccc(-c2ccc(-c3cc(C(=O)O)nn3-c3ccccc3C(F)(F)F)s2)c1` [Example 1193, 5-{5-[3-(methylsulfonyl)phenyl]-2-thienyl}-1-[2-(trifluoromethyl)phenyl]-1H-pyrazole-3-carboxylic acid] the figure was 1000 to 10000 nM; with `CCNC(=S)c1cc(-c2ccc(-c3cccc(S(C)(=O)=O)c3)s2)n(-c2ccccc2Cl)n1` [Example 1194, 1-(2-chlorophenyl)-N-ethyl-5-{5-[3-(methylsulfonyl)phenyl]-2-thienyl}-1H-pyrazole-3-carbothioamide], under 1000 nM; with `CS(=O)(=O)c1cccc(-c2ccc(-c3cc(C(=O)NCC(F)(F)F)nn3-c3ccccc3C(F)(F)F)s2)c1` [Example 1195, 5-{5-[3-(methylsulfonyl)phenyl]-2-thienyl}-N-(2,2,2-trifluoroethyl)-1-[2-(trifluoromethyl)phenyl]-1H-pyrazole-3-carboxamide], under 1000 nM.
With `CS(=O)(=O)NC(=O)c1cc(-c2ccc(-c3cccc(S(C)(=O)=O)c3)s2)n(-c2ccccc2C(F)(F)F)n1` [Example 1196, N-(methylsulfonyl)-5-{5-[3-(methylsulfonyl)phenyl]-2-thienyl}-1-[2-(trifluoromethyl)phenyl]-1H-pyrazole-3-carboxamide] the figure was 1000 to 10000 nM; with `NS(=O)(=O)c1cccc(-c2ccc(-c3cc(C(F)(F)F)nn3-c3cc(Cl)ccc3Oc3ccccc3)s2)c1` [Example 1198, 3-(5-{1-[5-chloro-2-(phenyloxy)phenyl]-3-(trifluoromethyl)-1H-pyrazol-5-yl}-2-thienyl)benzenesulfonamide], under 1000 nM.
Take `CC(C)(O)c1cc(-c2ccc(-c3cccc(S(C)(=O)=O)c3)cc2)n(-c2ccccc2C(F)(F)F)n1` [Example 1201, 2-{5-[3′-(methylsulfonyl)biphenyl-4-yl]-1-[2-(trifluoromethyl)phenyl]-1H-pyrazol-3-yl}propan-2-ol]: the EC50 was under 1000 nM.
With `CC(C)(O)c1cc(-c2ccc(-c3cccc(S(C)(=O)=O)c3)cc2)n(-c2ncccc2C(F)(F)F)n1` [Example 1202, 2-{5-[3′-(methylsulfonyl)phenyl-4-yl]-1-[3-(trifluoromethyl)pyridin-2-yl]-1H-pyrazol-3-yl}propan-2-ol] the figure was under 1000 nM; with `CC(C)(NC=O)c1cc(-c2ccc(-c3cccc(S(C)(=O)=O)c3)s2)n(-c2ccccc2Cl)n1` [Example 1203, N-{1-[1-(2-chlorophenyl)-5-{5-[3-(methylsulfonyl)phenyl]-2-thienyl}-1H-pyrazol-3-yl]-1-methylethyl}formamide], 1000 to 10000 nM; with `CC(C)(CNC=O)c1cc(-c2ccc(-c3cccc(S(C)(=O)=O)c3)s2)n(-c2ccccc2Cl)n1` [Example 1204, N-{2-[1-(2-chlorophenyl)-5-{5-[3-(methylsulfonyl)phenyl]-2-thienyl}-1H-pyrazol-3-yl]-2-methylpropyl}formamide], 1000 to 10000 nM.
Under `CC(C)(C(=O)O)c1cccc(-c2ccc(-c3cc(C(F)(F)F)nn3Cc3ccc(F)cc3F)s2)c1` [Example 1205, 2-[3-(5-{1-[(2,4-difluorophenyl)methyl]-3-(trifluoromethyl)-1H-pyrazol-5-yl}-2-thienyl)phenyl]-2-methylpropanoic acid] stands under 1000 nM; under `CC(=O)c1cc(-c2cc(C(F)(F)F)nn2-c2ccccc2Cl)ccc1-c1cccc(S(C)(=O)=O)c1` [Example 1206, 1-{4-[1-(2-chlorophenyl)-3-(trifluoromethyl)-1H-pyrazol-5-yl]-3′-(methylsulfonyl)biphenyl-2-yl}ethanone], under 1000 nM; under `CC(C)(O)c1cc(-c2cc(C(F)(F)F)nn2-c2ccccc2Cl)ccc1-c1cccc(S(C)(=O)=O)c1` [Example 1207, 2-{4-[1-(2-chlorophenyl)-3-(trifluoromethyl)-1H-pyrazol-5-yl]-3′-(methylsulfonyl)biphenyl-2-yl}propan-2-ol], 1000 to 10000 nM.
Regarding `COC(=O)c1cccc(-c2ccc(-c3cc(C(F)(F)F)nn3-c3ccccc3Cl)cc2)c1` [Example 1208, methyl 4′-[1-(2-chlorophenyl)-3-(trifluoromethyl)-1H-pyrazol-5-yl]biphenyl-3-carboxylate], the concentration for a half-maximal effect (EC50) fell in the range of 1000 to 10000 nM.
Under `CS(=O)(=O)c1cccc(-c2ccc(-c3cc(C(O)C(F)(F)F)nn3-c3ccccc3Cl)s2)c1` (stereo not shown) [Example 1209, 1-[1-(2-chlorophenyl)-5-{5-[3-(methylsulfonyl)phenyl]-2-thienyl}-1H-pyrazol-3-yl]-2,2,2-trifluoroethanol] stands under 1000 nM; under `CS(=O)(=O)c1cccc(-c2ccc(-c3cc(C(=O)N4CCCC4)nn3-c3ccccc3C(F)(F)F)s2)c1` [Example 1210, 5-{5-[3-(methylsulfonyl)phenyl]-2-thienyl}-3-(pyrrolidin-1-ylcarbonyl)-1-[2-(trifluoromethyl)phenyl]-1H-pyrazole], under 1000 nM; under `COC(F)(F)c1cc(-c2ccc(-c3cccc(S(C)(=O)=O)c3)s2)n(-c2ccccc2C(F)(F)F)n1` [Example 1211, 3-[difluoro(methyloxy)methyl]-5-{5-[3-(methylsulfonyl)phenyl]-2-thienyl}-1-[2-(trifluoromethyl)phenyl]-1H-pyrazole], under 1000 nM.
`CC(C)(O)c1cc(-c2ccc(-c3cccc(S(C)(=O)=O)c3)s2)n(-c2cc(Cl)ccc2Oc2ccccc2)n1` [Example 1212, 2-(1-[5-chloro-2-(phenyloxy)phenyl]-5-{5-[3-(methylsulfonyl)phenyl]-2-thienyl}-1H-pyrazol-3-yl)propan-2-ol] displayed an EC50 of under 1000 nM.
For `CC(=O)c1cc(-c2ccc(-c3cccc(S(C)(=O)=O)c3)s2)n(-c2cc(Cl)ccc2Oc2ccccc2)n1` [Example 1213, 1-(1-[5-chloro-2-(phenyloxy)phenyl]-5-{5-[3-(methylsulfonyl)phenyl]-2-thienyl}-1H-pyrazol-3-yl)ethanone], the EC50 was under 1000 nM.
Regarding `CC(C)(O)c1cc(-c2ccc(-c3cccc(S(N)(=O)=O)c3)s2)n(-c2cc(Cl)ccc2Cl)n1` [Example 1214, 3-{5-[1-(2,5-dichlorophenyl)-3-(1-hydroxy-1-methylethyl)-1H-pyrazol-5-yl]-2-thienyl}benzenesulfonamide], the EC50 lay in the range of 1000 to 10000 nM.
Under `CS(=O)(=O)c1cccc(-c2ccc(-c3cc(C(F)(F)F)nn3-c3ccccc3Oc3ccccc3)s2)c1` [Example 1215, 5-{5-[3-(methylsulfonyl)phenyl]-2-thienyl}-1-[2-(phenyloxy)phenyl]-3-(trifluoromethyl)-1H-pyrazole] stands under 1000 nM; under `CC(C)(O)c1cc(-c2ccccc2Cl)n(-c2ccc(-c3cccc(S(C)(=O)=O)c3)cc2)n1` [Example 1217, 2-{5-(2-chlorophenyl)-1-[3′-(methylsulfonyl)biphenyl-4-yl]-1H-pyrazol-3-yl}propan-2-ol], 1000 to 10000 nM; under `COC(=O)c1cc(-c2ccccc2Cl)n(-c2ccc(-c3cccc(S(C)(=O)=O)c3)cc2)n1` [Example 1218, methyl 5-(2-chlorophenyl)-1-[3′-(methylsulfonyl)biphenyl-4-yl]-1H-pyrazole-3-carboxylate], under 1000 nM.
In the case of `CC(C)(O)c1cc(-c2ccc(-c3cccc(S(C)(=O)=O)c3)cc2)n(-c2ccccc2Cl)n1` [Example 1219, 2-{1-(2-chlorophenyl)-5-[3′-(methylsulfonyl)biphenyl-4-yl]-1H-pyrazole-3-yl}propan-2-ol], the EC50 was under 1000 nM.
Under `COC(=O)c1cccc(-n2nc(C(=O)OC)cc2-c2ccc(-c3cccc(S(C)(=O)=O)c3)s2)c1` [Example 1220, methyl 1-{3-[(methyloxy)carbonyl]phenyl}-5-{5-[3-(methylsulfonyl)phenyl]-2-thienyl}-1H-pyrazole-3-carboxylate] stands under 1000 nM; under `CC(C)(O)c1cccc(-c2ccc(-c3cc(C(F)(F)F)nn3-c3ccccc3Cl)cc2)c1` [Example 1221, 2-{4′-[1-(2-chlorophenyl)-3-(trifluoromethyl)-1H-pyrazol-5-yl]biphenyl-3-yl}propan-2-ol], under 1000 nM.
Under `CS(=O)(=O)c1cccc(-c2ccc(-c3cc(C(F)(F)F)nn3CCN3CCOCC3)cc2)c1` [Example 1222, 4-(2-{5-[3′-(methylsulfonyl)phenyl-4-yl]-3-(trifluoromethyl)-1H-pyrazol-1-yl}ethyl)morpholine] stands under 1000 nM.
As for `CN1CCN(CCn2nc(C(F)(F)F)cc2-c2ccc(-c3cccc(S(C)(=O)=O)c3)cc2)CC1` [Example 1223, 1-methyl-4-(2-{5-[3′-(methylsulfonyl)biphenyl-4-yl]-3-(trifluoromethyl)-1H-pyrazol-1-yl}ethyl)piperazine], the EC50 is 1000 to 10000 nM.
Under `CC(=O)c1cc(-c2ccccc2Cl)n(-c2ccc(-c3cccc(S(C)(=O)=O)c3)cc2)n1` [Example 1224, 1-{5-(2-chlorophenyl)-1-[3′-(methylsulfonyl)biphenyl-4-yl]-1H-pyrazol-3-yl}ethanone] stands under 1000 nM.
